Results published in patent publication US20190105367A1, “ANTIMICROBIAL 4-OXOQUINOLIZINES” (Emergent Product Development Gaithersburg Inc., priority 2011, published 2019).
Converted amounts (≈) assume the structure as drawn. Like-named read-outs stand apart in the source and are kept apart here.

What was measured:
A. baumannii NCTC 13301 [1] = experiment: MIC without and with sub-inhibitory polymyxin B (Example 4); type: cell-based, Acinetobacter baumannii; details: +[…] PB, 2nd experiment
A. baumannii A14 [2] = experiment: Preliminary MBC without and with sub-inhibitory polymyxin B (Example 4); type: cell-based, Acinetobacter baumannii; details: 2nd experiment
Summary of the method: (§1)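 Plates were incubated for 18-20 hours at 37° C. MBC was taken as the lowest concentration giving colony growth ca. 90% below the positive control, typically where only single colonies or none appeared.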

A. baumannii NCTC 13301 [3] = experiment: as above; type: cell-based, Acinetobacter baumannii; details: Acinetobacter baumannii
Summary of the method: as §1

A. baumannii A473 [4] = experiment: as above; type: cell-based, Acinetobacter baumannii; details: Acinetobacter baumannii, A473, A. baumannii A473, +0.06 μg/ml PB, 2nd experiment, read-out: MBC
Summary of the method: as §1

A. baumannii A390 [5] = experiment: as above; type: cell-based, Acinetobacter baumannii; details: Acinetobacter baumannii, A390, A. baumannii A390, +0.06 μg/ml PB, 2nd experiment, read-out: MBC
Summary of the method: as §1

[6] = test system: Acinetobacter sp. (H064200250); experiment: as above; type: cell-based; details: Acinetobacter, preliminary MBC
Summary of the method: as §1

A. baumannii ATCC 19606 [7] = experiment: MIC without and with sub-inhibitory polymyxin B (Example 4); type: cell-based, Acinetobacter baumannii; details: for MIC without PB/MIC + PB: A. baumannii ATCC 19606; for MIC: Acinetobacter baumannii
[8] = test system: strains of A. baumannii and one strain of Acinetobacter sp.; experiment: MIC with sub-inhibitory concentrations (0.25x MIC) of polymyxin B, panel of Acinetobacter strains (Example 4); type: cell-based; details: 2nd experiment; 0.06 μg/ml polymyxin B; all strains except the ATCC strain
A. baumannii J2 [9] = experiment: Preliminary MBC without and with sub-inhibitory polymyxin B (Example 4); type: cell-based, Acinetobacter baumannii; details: Acinetobacter baumannii, preliminary MBC
A. baumannii A14 [10] = experiment: MIC without and with sub-inhibitory polymyxin B (Example 4); type: cell-based, Acinetobacter baumannii; details: 2nd experiment
A. baumannii A387 = experiment: as above; type: cell-based, Acinetobacter baumannii; details: for MIC without PB/MIC + PB: A. baumannii A387; for MIC: Acinetobacter baumannii
A. baumannii ATCC 19606 [11] = experiment: Preliminary MBC without and with sub-inhibitory polymyxin B (Example 4); type: cell-based, Acinetobacter baumannii; details: Acinetobacter baumannii
A. baumannii J2 [12] = experiment: MIC without and with sub-inhibitory polymyxin B (Example 4); type: cell-based, Acinetobacter baumannii
[13] = test system: Acinetobacter sp. (H064200250); experiment: as above; type: cell-based; details: for MIC: Acinetobacter
A. baumannii A489 [14] = experiment: as above; type: cell-based, Acinetobacter baumannii; details: for MIC without PB/MIC + PB: A. baumannii A489; for MIC: Acinetobacter baumannii
A. baumannii A472 = experiment: Preliminary MBC without and with sub-inhibitory polymyxin B (Example 4); type: cell-based, Acinetobacter baumannii; details: Acinetobacter baumannii, preliminary MBC
A. baumannii A329 [15] = experiment: as above; type: cell-based, Acinetobacter baumannii; details: Acinetobacter baumannii, A329, A. baumannii A329, +0.06 μg/ml PB, 2nd experiment, read-out: MBC
A. baumannii A14 [16] = experiment: MIC without and with sub-inhibitory polymyxin B (Example 4); type: cell-based, Acinetobacter baumannii; details: 1st experiment
A. baumannii A489 [17] = experiment: Preliminary MBC without and with sub-inhibitory polymyxin B (Example 4); type: cell-based, Acinetobacter baumannii; details: Acinetobacter baumannii, preliminary MBC
A. baumannii A473 [18] = experiment: MIC without and with sub-inhibitory polymyxin B (Example 4); type: cell-based, Acinetobacter baumannii; details: +0.06 μg/ml PB, 2nd experiment
A. baumannii NCTC 13301 [19] = experiment: as above; type: cell-based, Acinetobacter baumannii
A. baumannii A14 [20] = experiment: Preliminary MBC without and with sub-inhibitory polymyxin B (Example 4); type: cell-based, Acinetobacter baumannii; details: A. baumannii A14; +0.06 μg/ml polymyxin B; preliminary MBC; 1st experiment
A. baumannii A329 [21] = experiment: MIC without and with sub-inhibitory polymyxin B (Example 4); type: cell-based, Acinetobacter baumannii; details: +0.06 μg/ml PB, 2nd experiment
A. baumannii A390 [22] = experiment: as above; type: cell-based, Acinetobacter baumannii; details: +0.06 μg/ml PB, 2nd experiment
[23] = A. baumannii A14, +0.06 μg/ml PB
[24] = ratio, PB 0.06 μg/ml, 1st experiment

Cc1c(-c2ccc(N)cc2)ccn2c(=O)c(C(=O)O)cc(C3CC3)c12 [Compound 8, 8-(4-amino-phenyl)-1-cyclopropyl-9-methyl-4-oxo-quinolizine-3-carboxylic acid]
MIC without PB/MIC + PB (A. baumannii NCTC 13301 [1]; A. baumannii NCTC 13301): 32
MIC (A. baumannii NCTC 13301 [1]; Acinetobacter baumannii, NCTC13301, A. baumannii NCTC 13301, read-out: MIC): 0.5 µg/mL (≈ 1.5 µM)
MBC (A. baumannii A14 [2]; [23]): 0.5 µg/mL (≈ 1.5 µM)
MBC (A. baumannii A14 [2]; Acinetobacter baumannii, A14, A. baumannii A14, without PB, read-out: MBC): 16 µg/mL (≈ 47.9 µM)
MBC (A. baumannii NCTC 13301 [3]; NCTC13301, A. baumannii NCTC 13301, +[…] PB, preliminary MBC, 2nd experiment, read-out: MBC): 0.5 µg/mL (≈ 1.5 µM)
MBC (A. baumannii NCTC 13301 [3]; NCTC13301, read-out: MBC +[…] PB): 1 µg/mL (≈ 2.99 µM)
MBC (A. baumannii A473 [4]): 0.5 µg/mL (≈ 1.5 µM)
MBC (A. baumannii A390 [5]): 0.5 µg/mL (≈ 1.5 µM)
MBC ([6]; Acinetobacter spp. H064200250 (OXA51), +[…] PB, 2nd experiment, read-out: MBC): 0.125 µg/mL (≈ 0.374 µM)
MBC ([6]; read-out: MBC +[…] PB, Acinetobacter spp. H064200250, +[…] polymyxin B, 1st experiment): 0.5 µg/mL (≈ 1.5 µM)
MIC without PB/MIC + PB (A. baumannii ATCC 19606 [7]; +0.06 μg/ml PB, 2nd experiment): ≥8
MIC without PB/MIC + PB (A. baumannii ATCC 19606 [7]; [24]): ≥32
MIC (A. baumannii ATCC 19606 [7]; ATCC19606, A. baumannii ATCC 19606, +0.06 μg/ml PB, 2nd experiment, read-out: MIC): ≤ 0.03 µg/mL
MIC (A. baumannii ATCC 19606 [7]; ATCC19606, read-out: MIC +0.06 μg/ml PB, A. baumannii ATCC 19606, +0.06 μg/ml polymyxin B, 1st experiment): ≤ 0.03 µg/mL
MIC range with PB (0.25x MIC) Oct. 14, 2008 n = 11 [8]: ≤0.03 to 8 µg/mL
MBC (A. baumannii J2 [9]; J2, A. baumannii J2, +[…] PB, 2nd experiment, read-out: MBC): ≤ 0.03 µg/mL
MBC (A. baumannii J2 [9]; J2, read-out: MBC +[…] PB, A. baumannii J2, +[…] polymyxin B, 1st experiment): 0.125 µg/mL (≈ 0.374 µM)
MIC (A. baumannii A14 [10]; [23]): 0.5 µg/mL (≈ 1.5 µM)
MIC without PB/MIC + PB (A. baumannii A14 [10]; [23]): 16
MIC (A. baumannii A14 [10]; Acinetobacter baumannii, A14, A. baumannii A14, without PB, read-out: MIC): 8 µg/mL (≈ 23.9 µM)
MIC without PB/MIC + PB (A. baumannii A387; +0.06 μg/ml PB, 2nd experiment): 2
MIC without PB/MIC + PB (A. baumannii A387; [24]): ≥64
MIC (A. baumannii A387; A387, A. baumannii A387, +0.06 μg/ml PB, 2nd experiment, read-out: MIC): 0.5 µg/mL (≈ 1.5 µM)
MIC (A. baumannii A387; A387, read-out: MIC +0.06 μg/ml PB, A. baumannii A387, +0.06 μg/ml polymyxin B, 1st experiment): ≤ 0.03 µg/mL
MBC (A. baumannii ATCC 19606 [11]; ATCC19606, A. baumannii ATCC 19606, +0.06 μg/ml PB, 2nd experiment, read-out: MBC): ≤ 0.03 µg/mL
MBC (A. baumannii ATCC 19606 [11]; ATCC19606, read-out: MBC +0.06 μg/ml PB, A. baumannii ATCC 19606, +0.06 μg/ml polymyxin B, 1st experiment): ≤ 0.03 µg/mL
MIC without PB/MIC + PB (A. baumannii J2 [12]; A. baumannii J2, +[…] PB, 2nd experiment): ≥128
MIC +[…] PB (A. baumannii J2 [12]; A. baumannii J2, +[…] polymyxin B, 1st experiment): 0.125 µg/mL (≈ 0.374 µM)
MIC without PB/MIC + PB (A. baumannii J2 [12]; A. baumannii J2, ratio, PB […], 1st experiment): 64
MIC (A. baumannii J2 [12]; Acinetobacter baumannii, J2, A. baumannii J2, +[…] PB, 2nd experiment, read-out: MIC): ≤ 0.03 µg/mL
MIC without PB/MIC + PB ([13]; Acinetobacter spp. H064200250 (OXA51), +[…] PB, 2nd experiment): 32
MIC without PB/MIC + PB ([13]; Acinetobacter spp. H064200250, ratio, PB […], 1st experiment): 32
MIC ([13]; Acinetobacter spp. H064200250 (OXA51), +[…] PB, 2nd experiment, read-out: MIC): 0.125 µg/mL (≈ 0.374 µM)
MIC ([13]; read-out: MIC +[…] PB, Acinetobacter spp. H064200250, +[…] polymyxin B, 1st experiment): 0.06 µg/mL (≈ 0.179 µM)
MIC without PB/MIC + PB (A. baumannii A489 [14]; +[…] PB, 2nd experiment): ≥256
MIC without PB/MIC + PB (A. baumannii A489 [14]; ratio, PB […], 1st experiment): ≥64
MIC (A. baumannii A489 [14]; A489, A. baumannii A489, +[…] PB, 2nd experiment, read-out: MIC): ≤ 0.03 µg/mL
MIC (A. baumannii A489 [14]; A489, read-out: MIC +[…] PB, A. baumannii A489, +[…] polymyxin B, 1st experiment): ≤ 0.03 µg/mL
MBC (A. baumannii A472; A472, A. baumannii A472, +[…] PB, 2nd experiment, read-out: MBC): 0.06 µg/mL (≈ 0.179 µM)
MBC (A. baumannii A472; A472, read-out: MBC +[…] PB, A. baumannii A472, +[…] polymyxin B, 1st experiment): ≤ 0.03 µg/mL
MBC (A. baumannii A329 [15]): 2 µg/mL (≈ 5.98 µM)
MIC +0.06 μg/ml PB (A. baumannii A14 [16]; +0.06 μg/ml polymyxin B): 1 µg/mL
MIC without PB/MIC + PB (A. baumannii A14 [16]; ratio, PB 0.06 μg/ml): 32
MBC (A. baumannii A489 [17]; A489, A. baumannii A489, +[…] PB, 2nd experiment, read-out: MBC): ≤ 0.03 µg/mL
MBC (A. baumannii A489 [17]; A489, read-out: MBC +[…] PB, A. baumannii A489, +[…] polymyxin B, 1st experiment): ≤ 0.03 µg/mL
MIC without PB/MIC + PB (A. baumannii A473 [18]; A. baumannii A473): 8
MIC (A. baumannii A473 [18]; Acinetobacter baumannii, A473, A. baumannii A473, read-out: MIC): 0.5 µg/mL (≈ 1.5 µM)
MIC without PB/MIC + PB (A. baumannii NCTC 13301 [19]; A. baumannii NCTC 13301, ratio, PB […], 1st experiment): 64
MIC (A. baumannii NCTC 13301 [19]; Acinetobacter baumannii, NCTC13301, read-out: MIC +[…] PB): 0.5 µg/mL (≈ 1.5 µM)
MBC +0.06 μg/ml PB (A. baumannii A14 [20]): 1 µg/mL
MIC without PB/MIC + PB (A. baumannii A329 [21]; A. baumannii A329): 4
MIC (A. baumannii A329 [21]; Acinetobacter baumannii, A329, A. baumannii A329, read-out: MIC): 2 µg/mL (≈ 5.98 µM)
MIC without PB/MIC + PB (A. baumannii A390 [22]; A. baumannii A390): 32
MIC (A. baumannii A390 [22]; Acinetobacter baumannii, A390, A. baumannii A390, read-out: MIC): 0.5 µg/mL (≈ 1.5 µM)
